Measured values reported in patent US20020111274A1, “1-alkyl-3-[1-(substituted phenyl) benzotriazol-6-yl] uracils” (BASF Aktiengesellschaft, priority 2000, published 2002).

What was measured:
Set-up in all cases: scale not given here
ABUTH Velvetleaf [1] = test: Postemergence herbicidal evaluation, ABUTH; assay type: in vivo, Abutilon theophrasti, Medic.; settings: postemergence spray, rated about two-three weeks after treatment
Procedure, shortened: (§1)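 Postemergence spray, 40 psi nozzle, on ~2-week seedlings. Carrier: acetone/water 80/20, 1.0% methylated seed oil; dose ~0.006–0.400 kg/ha. Scored visually at 2–3 weeks.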

AMBEL Ragweed, Common [2] = test: Postemergence herbicidal evaluation, AMBEL; assay type: in vivo, Ambrosia artemisifolia, L.; settings: postemergence spray, rated about two-three weeks after treatment
Procedure, shortened: as §1

CASOB Sicklepod [3] = test: Postemergence herbicidal evaluation, CASOB; assay type: in vivo, Cassia obtusifolia, L.; settings: postemergence spray, rated about two-three weeks after treatment
Procedure, shortened: as §1

[4] = tested on: CHEAL Lambsquarters, Common; test: Postemergence herbicidal evaluation, CHEAL; assay type: in vivo, Chenopodium album, L.; settings: postemergence spray, rated about two-three weeks after treatment
Procedure, shortened: as §1

ECHOG Barnyardgrass [5] = test: Postemergence herbicidal evaluation, ECHOG; assay type: in vivo, Echinochloa crus-galli, (L.) Beau; settings: postemergence spray, rated about two-three weeks after treatment
Procedure, shortened: as §1

GALAP Galium [6] = test: Postemergence herbicidal evaluation, GALAP; assay type: in vivo, Galium aparine; settings: postemergence spray, rated about two-three weeks after treatment
Procedure, shortened: as §1

[7] = tested on: IPOHE Morningglory, Ivyleaf; test: Postemergence herbicidal evaluation, IPOHE; assay type: in vivo, Ipomoea hederacea, (L.) Jacq.; settings: postemergence spray, rated about two-three weeks after treatment
Procedure, shortened: as §1

SETVI Foxtail, Green [8] = test: Postemergence herbicidal evaluation, SETVI; assay type: in vivo, Setaria viridis, (L.) Beau; settings: postemergence spray, rated about two-three weeks after treatment
Procedure, shortened: as §1

GLXMAW Soybean, Williams [9] = test: Postemergence herbicidal evaluation, GLXMAW; assay type: in vivo, Glycine max, (L.) Merr. cv Williams; settings: postemergence spray, rated about two-three weeks after treatment
Procedure, shortened: as §1

[10] = tested on: TRZAWR Wheat, Winter, cv Riband; test: Postemergence herbicidal evaluation, TRZAWR; assay type: in vivo, Triticum aestivum; settings: postemergence spray, rated about two-three weeks after treatment
Procedure, shortened: as §1

ORYSAT Rice, Tebonnet [11] = test: Postemergence herbicidal evaluation, ORYSAT; assay type: in vivo, Oryza sativa, (L.); settings: postemergence spray, rated about two-three weeks after treatment
Procedure, shortened: as §1

ZEAMX Corn, Field [12] = test: Postemergence herbicidal evaluation, ZEAMX; assay type: in vivo, Zea mays, L. (Sammel-Bezeichnung); settings: postemergence spray, rated about two-three weeks after treatment
Procedure, shortened: as §1

ABUTH Velvetleaf [13] = test: Preemergence herbicidal evaluation, ABUTH; assay type: in vivo, Abutilon theophrasti, Medic.; settings: preemergence
Procedure, shortened: (§2)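 Preemergence soil spray: aqueous acetone, ~0.013–0.800 kg/ha, applied right after sowing (seed/potting-soil mix over ~1 in soil). Greenhouse, routine watering. Scored 4–5 wk post-treatment on a rating scale.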

AMBEL Ragweed, Common [14] = test: Preemergence herbicidal evaluation, AMBEL; assay type: in vivo, Ambrosia artemisifolia, L.; settings: preemergence
Procedure, shortened: as §2

CASOB Sicklepod [15] = test: Preemergence herbicidal evaluation, CASOB; assay type: in vivo, Cassia obtusifolia, L.; settings: preemergence
Procedure, shortened: as §2

[16] = tested on: CHEAL Lambsquarters, Common; test: Preemergence herbicidal evaluation, CHEAL; assay type: in vivo, Chenopodium album, L.; settings: preemergence
Procedure, shortened: as §2

ECHOG Barnyardgrass [17] = test: Preemergence herbicidal evaluation, ECHOG; assay type: in vivo, Echinochloa crus-galli, (L.) Beau; settings: preemergence
Procedure, shortened: as §2

GALAP Galium [18] = test: Preemergence herbicidal evaluation, GALAP; assay type: in vivo, Galium aparine; settings: preemergence
Procedure, shortened: as §2

[19] = tested on: IPOHE Morningglory, Ivyleaf; test: Preemergence herbicidal evaluation, IPOHE; assay type: in vivo, Ipomoea hederacea, (L.) Jacq.; settings: preemergence
Procedure, shortened: as §2

SETVI Foxtail, Green [20] = test: Preemergence herbicidal evaluation, SETVI; assay type: in vivo, Setaria viridis, (L.) Beau; settings: preemergence
Procedure, shortened: as §2

GLXMAW Soybean, Williams [21] = test: Preemergence herbicidal evaluation, GLXMAW; assay type: in vivo, Glycine max, (L.) Merr. cv Williams; settings: preemergence
Procedure, shortened: as §2

[22] = tested on: TRZAWR Wheat, Winter, cv Riband; test: Preemergence herbicidal evaluation, TRZAWR; assay type: in vivo, Triticum aestivum; settings: preemergence
Procedure, shortened: as §2

ORYSAT Rice, Tebonnet [23] = test: Preemergence herbicidal evaluation, ORYSAT; assay type: in vivo, Oryza sativa, (L.); settings: preemergence
Procedure, shortened: as §2

ZEAMX Corn, Field [24] = test: Preemergence herbicidal evaluation, ZEAMX; assay type: in vivo, Zea mays, L. (Sammel-Bezeichnung); settings: preemergence
Procedure, shortened: as §2

SMILES: COC(=O)C(C)Oc1ccc(C)cc1-n1nnc2cc(F)c(-n3c(=O)cc(C(F)(F)F)n(C)c3=O)cc21 (centres unmarked) [Example 41]
- Postemergence herbicidal rating ABUTH (ABUTH Velvetleaf [1]; 0.008 kg/ha): 9.0
- Postemergence herbicidal rating ABUTH (ABUTH Velvetleaf [1]; 0.016 kg/ha): 9.0
- Postemergence herbicidal rating ABUTH (ABUTH Velvetleaf [1]; 0.032 kg/ha): 9.0
- Postemergence herbicidal rating ABUTH (ABUTH Velvetleaf [1]; 0.062 kg/ha): 9.0
- Postemergence herbicidal rating AMBEL (AMBEL Ragweed, Common [2]; 0.008 kg/ha): 7.0
- Postemergence herbicidal rating AMBEL (AMBEL Ragweed, Common [2]; 0.016 kg/ha): 9.0
- Postemergence herbicidal rating AMBEL (AMBEL Ragweed, Common [2]; 0.032 kg/ha): 9.0
- Postemergence herbicidal rating AMBEL (AMBEL Ragweed, Common [2]; 0.062 kg/ha): 9.0
- Postemergence herbicidal rating CASOB (CASOB Sicklepod [3]; 0.008 kg/ha): 1.0
- Postemergence herbicidal rating CASOB (CASOB Sicklepod [3]; 0.016 kg/ha): 3.0
- Postemergence herbicidal rating CASOB (CASOB Sicklepod [3]; 0.032 kg/ha): 4.0
- Postemergence herbicidal rating CASOB (CASOB Sicklepod [3]; 0.062 kg/ha): 9.0
- Postemergence herbicidal rating CHEAL ([4]; 0.008 kg/ha): 2.0
- Postemergence herbicidal rating CHEAL ([4]; 0.016 kg/ha): 2.0
- Postemergence herbicidal rating CHEAL ([4]; 0.032 kg/ha): 4.0
- Postemergence herbicidal rating CHEAL ([4]; 0.062 kg/ha): 5.0
- Postemergence herbicidal rating ECHCG (ECHOG Barnyardgrass [5]; 0.008 kg/ha): 6.
- Postemergence herbicidal rating ECHCG (ECHOG Barnyardgrass [5]; 0.016 kg/ha): 9.0
- Postemergence herbicidal rating ECHCG (ECHOG Barnyardgrass [5]; 0.032 kg/ha): 9.0
- Postemergence herbicidal rating ECHCG (ECHOG Barnyardgrass [5]; 0.062 kg/ha): 9.0
- Postemergence herbicidal rating GALAP (GALAP Galium [6]; 0.008 kg/ha): 0.0
- Postemergence herbicidal rating GALAP (GALAP Galium [6]; 0.016 kg/ha): 1.0
- Postemergence herbicidal rating GALAP (GALAP Galium [6]; 0.032 kg/ha): 3.0
- Postemergence herbicidal rating GALAP (GALAP Galium [6]; 0.062 kg/ha): 3.0
- Postemergence herbicidal rating IPOHE ([7]; 0.008 kg/ha): 9.0
- Postemergence herbicidal rating IPOHE ([7]; 0.016 kg/ha): 9.0
- Postemergence herbicidal rating IPOHE ([7]; 0.032 kg/ha): 9.0
- Postemergence herbicidal rating IPOHE ([7]; 0.062 kg/ha): 9.0
- Postemergence herbicidal rating SETVI (SETVI Foxtail, Green [8]; 0.008 kg/ha): 7.0
- Postemergence herbicidal rating SETVI (SETVI Foxtail, Green [8]; 0.016 kg/ha): 9.0
- Postemergence herbicidal rating SETVI (SETVI Foxtail, Green [8]; 0.032 kg/ha): 9.0
- Postemergence herbicidal rating SETVI (SETVI Foxtail, Green [8]; 0.062 kg/ha): 9.0
- Postemergence herbicidal rating GLXMAW (GLXMAW Soybean, Williams [9]; 0.008 kg/ha): 5.5
- Postemergence herbicidal rating GLXMAW (GLXMAW Soybean, Williams [9]; 0.016 kg/ha): 7.5
- Postemergence herbicidal rating GLXMAW (GLXMAW Soybean, Williams [9]; 0.032 kg/ha): 8.0
- Postemergence herbicidal rating GLXMAW (GLXMAW Soybean, Williams [9]; 0.062 kg/ha): 8.0
- Postemergence herbicidal rating TRZAWR ([10]; 0.008 kg/ha): 6.0
- Postemergence herbicidal rating TRZAWR ([10]; 0.016 kg/ha): 7.0
- Postemergence herbicidal rating TRZAWR ([10]; 0.032 kg/ha): 8.0
- Postemergence herbicidal rating TRZAWR ([10]; 0.062 kg/ha): 8.0
- Postemergence herbicidal rating ORYSAT (ORYSAT Rice, Tebonnet [11]; 0.008 kg/ha): 1.5
- Postemergence herbicidal rating ORYSAT (ORYSAT Rice, Tebonnet [11]; 0.016 kg/ha): 2.5
- Postemergence herbicidal rating ORYSAT (ORYSAT Rice, Tebonnet [11]; 0.032 kg/ha): 7.0
- Postemergence herbicidal rating ORYSAT (ORYSAT Rice, Tebonnet [11]; 0.062 kg/ha): 8.0
- Postemergence herbicidal rating ZEAMX (ZEAMX Corn, Field [12]; 0.008 kg/ha): 6.5
- Postemergence herbicidal rating ZEAMX (ZEAMX Corn, Field [12]; 0.016 kg/ha): 8.0
- Postemergence herbicidal rating ZEAMX (ZEAMX Corn, Field [12]; 0.032 kg/ha): 8.0
- Postemergence herbicidal rating ZEAMX (ZEAMX Corn, Field [12]; 0.062 kg/ha): 9.0
- ABUTH herbicidal rating (ABUTH Velvetleaf [13]; rate 0.016 kg/ha): 4.0
- ABUTH herbicidal rating (ABUTH Velvetleaf [13]; rate 0.032 kg/ha): 4.0
- ABUTH herbicidal rating (ABUTH Velvetleaf [13]; rate 0.062 kg/ha): 9.0
- ABUTH herbicidal rating (ABUTH Velvetleaf [13]; rate 0.125 kg/ha): 9.0
- AMBEL herbicidal rating (AMBEL Ragweed, Common [14]; rate 0.016 kg/ha): 0.0
- AMBEL herbicidal rating (AMBEL Ragweed, Common [14]; rate 0.032 kg/ha): 0.0
- AMBEL herbicidal rating (AMBEL Ragweed, Common [14]; rate 0.062 kg/ha): 0.0
- AMBEL herbicidal rating (AMBEL Ragweed, Common [14]; rate 0.125 kg/ha): 7.0
- CASOB herbicidal rating (CASOB Sicklepod [15]; rate 0.016 kg/ha): 0.0
- CASOB herbicidal rating (CASOB Sicklepod [15]; rate 0.032 kg/ha): 0.0
- CASOB herbicidal rating (CASOB Sicklepod [15]; rate 0.062 kg/ha): 0.0
- CHEAL herbicidal rating ([16]; rate 0.016 kg/ha): 4.0
- CHEAL herbicidal rating ([16]; rate 0.032 kg/ha): 9.0
- CHEAL herbicidal rating ([16]; rate 0.062 kg/ha): 9.0
- CHEAL herbicidal rating ([16]; rate 0.125 kg/ha): 9.0
- ECHCG herbicidal rating (ECHOG Barnyardgrass [17]; rate 0.016 kg/ha): 0.0
- ECHCG herbicidal rating (ECHOG Barnyardgrass [17]; rate 0.032 kg/ha): 0.0
- ECHCG herbicidal rating (ECHOG Barnyardgrass [17]; rate 0.062 kg/ha): 0.0
- ECHCG herbicidal rating (ECHOG Barnyardgrass [17]; rate 0.125 kg/ha): 4.0
- GALAP herbicidal rating (GALAP Galium [18]; rate 0.016 kg/ha): 0.0
- GALAP herbicidal rating (GALAP Galium [18]; rate 0.032 kg/ha): 0.0
- GALAP herbicidal rating (GALAP Galium [18]; rate 0.062 kg/ha): 0.0
- GALAP herbicidal rating (GALAP Galium [18]; rate 0.125 kg/ha): 0.0
- IPOHE herbicidal rating ([19]; rate 0.016 kg/ha): 0.0
- IPOHE herbicidal rating ([19]; rate 0.032 kg/ha): 0.0
- IPOHE herbicidal rating ([19]; rate 0.062 kg/ha): 0.0
- IPOHE herbicidal rating ([19]; rate 0.125 kg/ha): 9.0
- SETVI herbicidal rating (SETVI Foxtail, Green [20]; rate 0.016 kg/ha): 0.0
- SETVI herbicidal rating (SETVI Foxtail, Green [20]; rate 0.032 kg/ha): 0.0
- SETVI herbicidal rating (SETVI Foxtail, Green [20]; rate 0.062 kg/ha): 0.0
- SETVI herbicidal rating (SETVI Foxtail, Green [20]; rate 0.125 kg/ha): 9.0
- GLXMAW herbicidal rating (GLXMAW Soybean, Williams [21]; rate 0.016 kg/ha): 0.0
- GLXMAW herbicidal rating (GLXMAW Soybean, Williams [21]; rate 0.032 kg/ha): 0.0
- GLXMAW herbicidal rating (GLXMAW Soybean, Williams [21]; rate 0.062 kg/ha): 2.0
- GLXMAW herbicidal rating (GLXMAW Soybean, Williams [21]; rate 0.125 kg/ha): 2.0
- TRZAWR herbicidal rating ([22]; rate 0.016 kg/ha): 0.0
- TRZAWR herbicidal rating ([22]; rate 0.032 kg/ha): 0.0
- TRZAWR herbicidal rating ([22]; rate 0.062 kg/ha): 0.0
- TRZAWR herbicidal rating ([22]; rate 0.125 kg/ha): 1.0
- ORYSAT herbicidal rating (ORYSAT Rice, Tebonnet [23]; rate 0.016 kg/ha): 0.0
- ORYSAT herbicidal rating (ORYSAT Rice, Tebonnet [23]; rate 0.032 kg/ha): 0.0
- ORYSAT herbicidal rating (ORYSAT Rice, Tebonnet [23]; rate 0.062 kg/ha): 3.0
- ORYSAT herbicidal rating (ORYSAT Rice, Tebonnet [23]; rate 0.125 kg/ha): 4.0
- ZEAMX herbicidal rating (ZEAMX Corn, Field [24]; rate 0.016 kg/ha): 0.0
- ZEAMX herbicidal rating (ZEAMX Corn, Field [24]; rate 0.032 kg/ha): 0.0
- ZEAMX herbicidal rating (ZEAMX Corn, Field [24]; rate 0.062 kg/ha): 0.0
- ZEAMX herbicidal rating (ZEAMX Corn, Field [24]; rate 0.125 kg/ha): 0.0
